This is an account of results in ChEMBL document CHEMBL3608252, “Dietziamides, novel tetramic acid dimers from Dietzia timorensis MZ-3 with antioxidative activity” (Bioorg Med Chem Lett, 2015).

Active and inactive are the calls of the source. No cut-off for these calls is given here.

The nature of series [1]: Antioxidant activity assessed as DPPH redical scavenging activity incubated for 2 hrs in dark condition. The class given is physicochemical. In general terms: The DPPH test is a chemical assay of radical scavenging.
In series [2] the test system is Candida albicans. The series is described as follows: Antimicrobial activity against Candida albicans assessed as growth inhibition at 1.25 to 10 ug/disk incubated for 1 to 2 days by disk diffusion assay. Type of series: functional, organism-based. On the technique in general: In agar diffusion tests the substance spreads into inoculated agar from a disc or well.

Series [3] deals with Saccharomyces cerevisiae. Description: Antimicrobial activity against Saccharomyces cerevisiae assessed as growth inhibition at 1.25 to 10 ug/disk incubated for 1 to 2 days by disk diffusion assay. Type of series: functional, organism-based.
Series [4] concerns P388. Description: Cytotoxicity against mouse P388 cells at 0.78 to 100 uM after 4 days by MTT assay. The class given is functional, cell-based. Background: Formazan colour is commonly taken as a measure of viable cells.
Series [5] deals with Bacillus subtilis. Description: Antimicrobial activity against Bacillus subtilis assessed as growth inhibition at 1.25 to 10 ug/disk incubated for 1 to 2 days by disk diffusion assay. Type of series: functional, organism-based.

The IC50 is the point on the concentration scale where inhibition reaches its midpoint. In the case of `O=C1O[C@H]([C@@H](O)CO)C(O)=C1O` [ASCORBIC ACID], the IC50 in series [1] was determined as 13 µM.

Regarding `C/C=C1\NC(=O)C(C(C2=C(O)/C(=C/C)NC2=O)[C@H](O)CO)=C1O` (stereo partly specified), the “growth inhibition (GI)” value in series [2], in series [3] and in series [5] was “inactive” throughout. Moreover, in series [4], the outcome was inactive. In series [1], the IC50 is 37 µM.

`C/C=C1\NC(=O)C(CC2=C(O)/C(=C/C)NC2=O)=C1O`: the “growth inhibition (GI)” value in series [2], in series [3] and in series [5] was “inactive” each time. In addition, the result in series [4] was inactive. The IC50 in series [1] turned out to be 34 µM.
